From patent US7553105B1, “Method and compositions for treatment of subsurface contaminants” (Colorado School of Mines, priority 2005, dated 2009)
Values after ≈ are worked out from the molar mass of the structure shown. Values joined by “and” are separate entries in the source; they are usually repeats but may differ in a detail not shown here. Equal values may be shown once. Read-outs that look alike come from different tables or passages of the source. Marks after values point to notes of the source that are not given here. One block for each compound: values may come before it.

Experiments:
[1] = Batch screening for compatibility of surfactants/cosolvents with KMnO4; details: for effect of surfactant concentration on compatibility with permanganate: FIG. 1
[2] = 25° C.; cited from earlier work
[3] = Solubility of PCE in surfactants, co-surfactants and electrolytes versus water alone; assay type: physicochemical
Description: Co-surfactants and electrolytes serve to further enhance the solubilization capacity of any given surfactant.
Therefore use of equilibrium values in the prediction of surfactant enhanced remediation performance may result in the underestimation of remediation times and costs.
PCE concentrations were determined using a Hewlett-Packard gas chromatograph (GC) equipped with auto-ampler and electron capture detector (ECD).

[4] = maximum contaminant level, USEPA; cited from earlier work
[5] = Solubility in water 20° C.; assay type: physicochemical; details: measured for this study
[6] = Example 3 batch compatibility of cosolvents and surfactants with permanganate; details: 5,000 mg/L KMnO4; 24-48 hr observation
[7] = Batch surfactant sorption experiments; assay type: physicochemical; details: medium-grained laboratory sand
Source text: Adsorption isotherms of ionic surfactants onto charged sites are typically approximated using a Langmuir model (Rosen, 1989).

[8] = Interfacial tension, DuNuoy ring tensiometer; details: 3.5 wt % Dowfax 8390 solution equilibrated with PCE, average of five measurements
[9] = literature; cited from earlier work
[10] = Density of 3.5 wt % Dowfax 8390 solution; details: 3.5 wt % solution, 23° C., average of five measurements
[11] = vendor data, cited from earlier work
[12] = MnO4^− loss, 3-hour observation, 3.5 wt % surfactant + 5000 mg/L KMnO4
[13] = MnO4^− loss, 24-hour observation, 3.5 wt % surfactant + 5000 mg/L KMnO4
[14] = 3-hour observation, 3.5 wt % surfactant + 5000 mg/L KMnO4
[15] = 24-hour observation, 3.5 wt % surfactant + 5000 mg/L KMnO4

Compound: CC(C)=O [Acetone]
% mass loss [1]: 98%

Compound: Cl[C@H]1[C@H](Cl)[C@@H](Cl)[C@@H](Cl)[C@H](Cl)[C@H]1Cl [Lindane (herbicide), Lindane]
Solubility in water [2]: 7.3 µg/mL (≈ 25.1 µM)

% mass loss [1, 12]: 100% | % mass loss [1, 13]: 100%
Compound: CCCCCCCC/C=C\CCCCCCCC(=O)OCCOCC(OCCO)C1OCC(OCCO)C1OCCO (centres unmarked) [Tween 80, polyoxyethylene (20) sorbitan monooleate]
effect of surfactant concentration on compatibility with permanganate [1]: only compatible at low residual levels with permanganate

Compound: CCCCCCCCCC [n-Decane]
Solubility in water [2]: 0.053 µg/mL (≈ 0.372 µM)

Compound: Clc1ccccc1 [Chlorobenzene]
Solubility in water [2]: 472 µg/mL (≈ 4190 µM)

Compound: ClC(Cl)=C(Cl)Cl [PCE, tetrachloroethene]
5% Dowfax + 3% AOT: PCE ([3]; in 5% Dowfax + 3% AOT): 31,954 mg/L | 5% Dowfax + 3% AOT + 3% NaBr: PCE ([3]; in 5% Dowfax + 3% AOT + 3% NaBr): 107,284 mg/L | 5% SDS + 3% AOT: PCE ([3]; in 5% SDS + 3% AOT): 21,410 mg/L | 5% SDS + 3% AOT + 3% NaBr: PCE ([3]; in 5% SDS + 3% AOT + 3% NaBr): 62,700 mg/L | PCE in water only ([3]; water only): 200 mg/L | MCL [4]: 0.005 mg/L | solubility [5]: 250 µg/mL (≈ 1510 µM)

Compound: Clc1cc2c(cc1Cl)Oc1cc(Cl)c(Cl)cc1O2 [Dioxin (2,3,7,8-TCDD), 2,3,7,8-TCDD]
MCL [4]: 3e-08 mg/L | Solubility in water [2]: 1.9e-09 µg/mL (≈ 5.9e-09 µM)

Average MnO4^− [1, 14]: 4340 mg/L | Average MnO4^− [1, 15]: 4183 mg/L | % mass loss [1, 12]: 14% | % mass loss [1, 13]: 15%
Compound: (C16 linear) Sodium diphenyl oxide sulfonate [Calfax 16L-35]

Compound: c1ccc2c(c1)ccc1ccccc12 [Phenanthrene (PAH), Phenanthrene]
MCL [4]: 0.0002 mg/L | Solubility in water [2]: 6.2 µg/mL (≈ 34.8 µM)

Compound: CCc1ccccc1 [Ethylbenzene]
MCL [4]: 0.7 mg/L | Solubility in water [2]: 152 µg/mL (≈ 1430 µM)

Compound: CCCCCCCC [n-Octane]
Solubility in water [2]: 0.72 µg/mL (≈ 6.3 µM)

Compound: CC(C)(C)O [tert-butanol]
Relative Amount of MnO2 Solids Generated [6]: None | Solution Color [6]: Dark | % mass loss [1]: 2% and 4% | Average MnO4^− [1]: 5075 mg/L and 4986 mg/L

Compound: ClC=C(Cl)Cl [Trichloroethene, trichloroethene]
MCL [4]: 0.005 mg/L

Compound: Sodium hexadecyl diphenyl oxide disulfonate [Dowfax 8390]
Relative Amount of MnO2 Solids Generated [6]: Few | Solution Color [6]: Dark | sorption to laboratory sand [7]: negligible | Interfacial Tension [8]: 8.5^c dyne/cm | compatibility with permanganate [1]: compatible with permanganate | Average MnO4^− [1, 14]: 4458 mg/L | Average MnO4^− [1, 15]: 3980 mg/L | effect of surfactant concentration on compatibility with permanganate [1]: not dependent on surfactant concentration | % mass loss [1, 12]: 10% | % mass loss [1, 13]: 23% | sorption to aquifer materials [9]: low sorption to aquifer materials | Density [10]: 1.007^c g/cm^3 | CMC ([11]; critical micelle concentration): 140 mg/L | HLB [11]: 78.6

Compound: Cc1ccccc1C [o-Xylene]
Solubility in water [2]: 175 µg/mL (≈ 1650 µM)

Compound: Cc1ccc(C)cc1 [p-Xylene]
MCL [4]: 10 mg/L | Solubility in water [2]: 210 µg/mL (≈ 1980 µM)

compatibility with permanganate [1]: compatible with permanganate | Average MnO4^− [1, 14]: 4523 mg/L | Average MnO4^− [1, 15]: 4393 mg/L | % mass loss [1, 12]: 6% | % mass loss [1, 13]: 20%
Compound: CCCCCCCCCCCCOS(=O)(=O)[O-].[Na+] [SDS, sodium dodecyl sulfate]

Compound: c1ccc2ccccc2c1 [Napthalene (PAH), Napthalene]
MCL [4]: 0.0002 mg/L | Solubility in water [2]: 33 µg/mL (≈ 257 µM)

Compound: c1ccccc1 [Benzene]
MCL [4]: 0.005 mg/L

Average MnO4^− [1, 14]: 3442 mg/L | Average MnO4^− [1, 15]: 1896 mg/L | % mass loss [1, 12]: 29% | % mass loss [1, 13]: 61%
Compound: CCCCCCCCCCCCc1ccc(S(=O)(=O)O)cc1 [SDBS]
